Measurements from BigSolDB 2.1.

Cc1nc2n(c(=O)c1CCN1CCC(c3noc4cc(F)ccc34)CC1)CCCC2
solubility (mole fraction)
Settings | 278.15 K | 283.15 K | 288.15 K | 293.15 K | 298.15 K | 303.15 K | 308.15 K | 313.15 K
in acetone | 0.000769 | 0.00111 | 0.00135 | 0.00166 | 0.00208 | 0.00251 | 0.00309 | 0.0039
in ethanol | 0.000876 | 0.00107 | 0.00133 | 0.00156 | 0.00209 | 0.00259 | 0.00333 | 0.00427
in ethyl acetate | 0.00113 | 0.00144 | 0.00165 | 0.00207 | 0.00248 | 0.00297 | 0.00373 | 0.00464
in isobutyl acetate | 0.000791 | 0.00106 | 0.00129 | 0.0015 | 0.00183 | 0.00226 | 0.00266 | 0.0033
in isopropanol | 0.00047 | 0.0006 | 0.000714 | 0.000853 | 0.00111 | 0.00134 | 0.00193 | 0.00271
in isopropyl acetate | 0.000742 | 0.000884 | 0.00102 | 0.00125 | 0.0015 | 0.00186 | 0.00225 | 0.0027
in methanol | 0.00204 | 0.00226 | 0.00273 | 0.00331 | 0.00407 | 0.00506 | 0.00623 | 0.00787
in methyl acetate | 0.00124 | 0.00153 | 0.0018 | 0.00219 | 0.00264 | 0.00329 | 0.00397 | 0.00489
in n-butanol | 0.00144 | 0.00183 | 0.00225 | 0.00291 | 0.00368 | 0.00479 | 0.00621 | 0.00792
in n-butyl acetate | 0.00112 | 0.00129 | 0.00159 | 0.00189 | 0.00241 | 0.00282 | 0.00341 | 0.00386
in n-propanol | 0.00111 | 0.00149 | 0.00199 | 0.00248 | 0.0031 | 0.00409 | 0.00532 | 0.00683
in n-propyl acetate | 0.00116 | 0.00147 | 0.00166 | 0.00202 | 0.00242 | 0.00288 | 0.00357 | 0.00424
in sec-butanol | 0.00187 | 0.00244 | 0.00286 | 0.00361 | 0.00464 | 0.00604 | 0.00769 | 0.00987
